Data reported in publication PMC3191909 (Journal of biomolecular screening, 2009).
Where two headings read alike, the source gives them in different places.

Assays:
(UniProt Z9ZW91H0F0) = experiment: [3H]epibatidine radioligand competition SPA, Bt AChBP; assay type: binding, Bolinus truncates
AChBP (Ac) [1] = target: T1, AChBP (Ac) (Aplysia californica, UniProt Q8WSF8); experiment: biochemical; assay type: binding
AChBP (Ac) [2] = target: T1, AChBP (Ac); experiment: [3H]epibatidine radioligand competition SPA, Ac AChBP; assay type: binding
α-cobratoxin = α-cobratoxin (Naja kaouthia, UniProt P01391); set-up: species or system mice; settings: mouse, in vivo, iv
AChBP (Ls) [3] = target: T2, AChBP (Ls) (Lymnaea stagnalis, UniProt P58154); assay type: binding; settings: read-out: Kd, [3H]Epibatidine
AChBP (Ls) [4] = target: T2, AChBP (Ls); assay type: binding; settings: read-out: Kd, [125I]α-Bungarotoxin

T2 sequence (P58154 20-229): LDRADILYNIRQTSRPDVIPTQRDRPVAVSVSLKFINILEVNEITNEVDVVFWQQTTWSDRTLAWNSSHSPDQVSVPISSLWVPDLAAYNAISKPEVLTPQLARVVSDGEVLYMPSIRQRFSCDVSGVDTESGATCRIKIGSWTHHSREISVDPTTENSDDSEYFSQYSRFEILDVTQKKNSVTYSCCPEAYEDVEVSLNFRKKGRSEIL
Sequence of α-cobratoxin (P01391 whole entry, looked up): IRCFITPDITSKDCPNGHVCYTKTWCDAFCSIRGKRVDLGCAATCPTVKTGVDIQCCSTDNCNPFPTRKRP
Sequence of (UniProt Z9ZW91H0F0) (Z9ZW91H0F0 1-203): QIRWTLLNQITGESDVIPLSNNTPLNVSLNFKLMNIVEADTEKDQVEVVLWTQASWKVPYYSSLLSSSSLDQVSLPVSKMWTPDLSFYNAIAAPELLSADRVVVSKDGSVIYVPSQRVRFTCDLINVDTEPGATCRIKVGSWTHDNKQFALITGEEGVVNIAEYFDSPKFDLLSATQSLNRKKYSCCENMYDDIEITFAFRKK

COc1cc2c3cc1Oc1cc(ccc1O)C[C@@H]1c4c(cc(OC)c(O)c4Oc4ccc(cc4)C[C@@H]3N(C)CC2)CC[N+]1(C)C [NSC36387, d-tubocurarine, reference compound]
Kd ((UniProt Z9ZW91H0F0)): 37.5 nM

c1ccc2c(CN3CCN(Cc4c[nH]c5ccccc45)CC3)c[nH]c2c1 [NSC42258]
Kd (AChBP (Ac) [1]): 2910 nM | Kd (AChBP (Ac) [2]): 1150 nM | effect on survival time of mice (in words) (α-cobratoxin): can prolong the survival time

COc1cc2c(cc1OC)C13CCN4CC5=CCOC(CC(=O)O)C(C5CC41)C3N2 (centres unmarked) [NSC121865]
Kd (AChBP (Ls) [3]): 112 nM | Kd (AChBP (Ls) [4]): 75.9 nM

N#Cc1ccc(/C=C/C(=O)O)cc1 [NSC134754]
Kd (AChBP (Ls) [3]): 793 nM | Kd (AChBP (Ls) [4]): 404 nM
